In US20130085064A1, “PESTICIDAL MIXTURES CONTAINING ISOXAZOLINE DERIVATIVES AND INSECTICIDE OR NEMATOICIDAL BIOLOGICAL AGENT” (priority 2010, published 2013):
Values joined by “and” are separate entries in the source; they are usually repeats but may differ in a detail not shown here. Equal entries are not always repeated. Where two headings read alike, the source gives them in different places.

Tests used:
Assay type in all cases: in vivo
[1] = tested on: Tetranychus urticae (two spotted spider mite); test: Tetranychus urticae contact/feeding activity on bean plants, adult mortality
Description: (§1) The action to be expected E for a given active ingredient combination obeys the so-called COLBY formula and can be calculated as follows (COLBY, S.R. “Calculating synergistic and antagonistic responses of herbicide combination”. Weeds, Vol. 15, pages 20-22; 1967):
(§2) ppm=milligrams of active ingredient (=a.i.) per liter of spray mixture X=% action by active ingredient A) using p ppm of active ingredient Y=% action by active ingredient B) using q ppm of active ingredient.
(§3) According to COLBY, the expected (additive) action of active ingredients A)+B) using p+q ppm of active ingredient is
(§4) If the action actually observed (O) is greater than the expected action (E), then the action of the combination is super-additive, i.e. there is a synergistic effect. In mathematical terms the synergism factor SF corresponds to O/E. In the agricultural practice an SF of ≧1.2 indicates significant improvement over the purely complementary addition of activities (expected activity), while an SF of ≦0.9 in the practical application routine signals a loss of activity compared to the expected activity.
Tetranychus Urticae (Two Spotted Spider Mite)
(Contact/Feeding Activity)
Bean plants are infested with mite populations of mixed ages. 1 day after infestation, plants are treated in a spray chamber with diluted test solutions. 1 and 8 days later, samples are checked for adult mortality. 2 replicates per treatment were evaluated.

[2] = tested on: Spodoptera littoralis (Egyptian cotton leaf worm); test: Spodoptera littoralis larvicide L1, feeding/contact, cotton leaf discs; conditions: single compound
Description: as §1, §2, §3, §4
Spodoptera Littoralis (Egyptian Cotton Leaf Worm)
(Larvicide L1, Feeding/Contact)
Cotton leaf discs are placed on agar in Petri dishes and sprayed with test solutions in an application chamber. After drying, the leaf discs are infested with 10 L1 larvae. The samples are checked for mortality 5 days after treatment. 3 replicates per treatment were evaluated. (1 PPM=1 mg l^−1)

[3] = tested on: Heliothis virescens (tobacco budworm); test: Heliothis virescens eggs in 24-well microtiter plate on artificial diet, larval mortality; conditions: for pest or weed control at 6.25 ppm / pest or weed control at 12.5 ppm / pest or weed control at 25 ppm / pest or weed control at 50 ppm / pest or weed control at 100 ppm / pest or weed control at 200 ppm: Heliothis virescens, 96 h, read-out: AVERAGE DEAD IN %
Description: as §1, §2, §3, §4
Heliothis Virescens (Tobacco Budworm)
Eggs (0-24 h old) are placed in 24-well microtiter plate on artificial diet and treated with test solutions (DMSO) by pipetting. After an incubation period of 4 days, samples are checked for larval mortality.

[4] = tested on: Heliothis virescens (tobacco budworm); test: Heliothis virescens ovo-larvicide, feeding/contact, eggs on filter paper in Petri dishes; conditions: for AVERAGE DEAD IN % (EGGS) / AVERAGE DEAD IN % (LARVAE): single compound, 7 days
Description: as §1, §2, §3, §4
Heliothis Virescens (Tobacco Budworm):
(Ovo-Larvicide, Feeding/Contact)
30-35 fresh eggs (0-24 h old), deposited on filter paper, are placed in Petri dishes on top of a layer of artificial diet and 0.8 ml of diluted test solutions are pipetted onto them. After an incubation period of 7 days, samples are checked for egg and larval mortality. 3 replicates per treatment were evaluated.

[5] = tested on: Tetranychus urticae (two-spotted spider mite); test: Tetranychus urticae bean leaf discs in 24-well microtiter plates, mixed population mortality; conditions: 8 days
Description: as §1, §2, §3, §4
Tetranychus Urticae (Two-Spotted Spider Mite)
Bean leaf discs on agar in 24-well microtiter plates are sprayed with test solutions (DMSO). After drying, the leaf discs are infested with mite populations of mixed ages. 8 days later, discs are checked for mixed population mortality.

CCOC(=O)OC1=C(c2cc(C)ccc2C)C(=O)N[C@]12CC[C@@H](OC)CC2 [Spirotetramat, spirotetramat]
AVERAGE DEAD IN % AFTER 8 DAYS ([1]; 0.1 ppm alone): 10% | AVERAGE DEAD IN % AFTER 8 DAYS ([1]; 0.2 ppm alone): 33% | AVERAGE DEAD IN % AFTER 8 DAYS ([1]; 0.4 ppm alone): 38% | AVERAGE DEAD IN % AFTER 1 DAY ([1]; Spirotetramat alone 0.1 ppm AI): 13% | AVERAGE DEAD IN % AFTER 1 DAY ([1]; Spirotetramat alone 0.2 ppm AI): 18% | AVERAGE DEAD IN % AFTER 1 DAY ([1]; Spirotetramat alone 0.4 ppm AI): 23% | AVERAGE DEAD IN % AFTER 5 DAYS ([2]; 25 ppm AI): 23% | AVERAGE DEAD IN % AFTER 5 DAYS ([2]; 50 PPM AI): 17% and 33% | AVERAGE DEAD IN % AFTER 5 DAYS ([2]; 50 ppm AI): 33% | AVERAGE DEAD IN % AFTER 5 DAYS ([2]; 100 PPM AI): 43% and 67% | AVERAGE DEAD IN % AFTER 5 DAYS ([2]; 100 ppm AI): 67% | pest or weed control at 6.25 ppm ([3]; Spirotetramat alone 6.25 ppm AI): 0% | pest or weed control at 12.5 ppm ([3]; Spirotetramat alone 12.5 ppm AI): 0% | pest or weed control at 25 ppm ([3]; Spirotetramat alone 25 ppm AI): 0% | pest or weed control at 50 ppm ([3]; Spirotetramat alone 50 ppm AI): 0% | pest or weed control at 100 ppm ([3]; Spirotetramat alone 100 ppm AI): 0% | pest or weed control at 200 ppm ([3]; Spirotetramat alone 200 ppm AI): 0% | pest or weed control at 6.25 ppm ([3]; single compound at 6.25 ppm AI): 0% | pest or weed control at 12.5 ppm ([3]; single compound at 12.5 ppm AI): 0% | pest or weed control at 25 ppm ([3]; single compound at 25 ppm AI): 0% | pest or weed control at 50 ppm ([3]; single compound at 50 ppm AI): 0% | pest or weed control at 100 ppm ([3]; single compound at 100 ppm AI): 0% | pest or weed control at 200 ppm ([3]; single compound at 200 ppm AI): 0% | AVERAGE DEAD IN % (EGGS) ([4]; 100 ppm AI): 0% | AVERAGE DEAD IN % (LARVAE) ([4]; 100 ppm AI): 78% | AVERAGE DEAD IN % (EGGS) ([4]; 200 ppm AI): 67% and 65% | AVERAGE DEAD IN % (LARVAE) ([4]; 200 ppm AI): 100% and 98%

CN1COCN(Cc2cnc(Cl)s2)/C1=N\[N+](=O)[O-] [Thiamethoxam, thiamethoxam]
AVERAGE DEAD IN % AFTER 8 DAYS ([1]; 200 ppm alone): 5% | AVERAGE DEAD IN % AFTER 1 DAY ([1]; Thiamethoxam alone 200 ppm AI): 0% | AVERAGE DEAD IN % AFTER 5 DAYS ([2]; 0.2 PPM AI): 7% and 10% | AVERAGE DEAD IN % AFTER 5 DAYS ([2]; 0.2 ppm AI): 10% | AVERAGE DEAD IN % AFTER 5 DAYS ([2]; 0.4 PPM AI): 13% | AVERAGE DEAD IN % AFTER 5 DAYS ([2]; 0.4 ppm AI): 13% | AVERAGE DEAD IN % AFTER 5 DAYS ([2]; 0.8 PPM AI): 30% | AVERAGE DEAD IN % AFTER 5 DAYS ([2]; 0.8 ppm AI): 30% | pest or weed control at 6.25 ppm ([3]; Thiamethoxam alone 6.25 ppm AI): 0% | pest or weed control at 12.5 ppm ([3]; Thiamethoxam alone 12.5 ppm AI): 0% | pest or weed control at 25 ppm ([3]; Thiamethoxam alone 25 ppm AI): 0% | pest or weed control at 50 ppm ([3]; Thiamethoxam alone 50 ppm AI): 0% | pest or weed control at 100 ppm ([3]; Thiamethoxam alone 100 ppm AI): 25% | pest or weed control at 200 ppm ([3]; Thiamethoxam alone 200 ppm AI): 65% | pest or weed control at 6.25 ppm ([3]; single compound at 6.25 ppm AI): 0% | pest or weed control at 12.5 ppm ([3]; single compound at 12.5 ppm AI): 0% | pest or weed control at 25 ppm ([3]; single compound at 25 ppm AI): 0% | pest or weed control at 50 ppm ([3]; single compound at 50 ppm AI): 0% | pest or weed control at 100 ppm ([3]; single compound at 100 ppm AI): 25% | pest or weed control at 200 ppm ([3]; single compound at 200 ppm AI): 65% | AVERAGE DEAD IN % ([5]; 25 ppm alone): 0% | AVERAGE DEAD IN % ([5]; 50 ppm alone): 13% | AVERAGE DEAD IN % ([5]; 100 ppm alone): 38% | AVERAGE DEAD IN % ([5]; 200 ppm alone): 0% | AVERAGE DEAD IN % ([5]; 400 ppm alone): 0% | AVERAGE DEAD IN % ([5]; 800 ppm alone): 13% | AVERAGE DEAD IN % ([5]; Thiamethoxam alone, 25 ppm, Table 122): 0% | AVERAGE DEAD IN % ([5]; Thiamethoxam alone, 50 ppm, Table 122): 13% | AVERAGE DEAD IN % ([5]; Thiamethoxam alone, 100 ppm, Table 122): 38% | AVERAGE DEAD IN % ([5]; Thiamethoxam alone, 200 ppm, Table 122): 0% | AVERAGE DEAD IN % ([5]; Thiamethoxam alone, 400 ppm, Table 122): 0% | AVERAGE DEAD IN % ([5]; Thiamethoxam alone, 800 ppm, Table 122): 13% | AVERAGE DEAD IN % (EGGS) ([4]; 100 ppm AI): 0% | AVERAGE DEAD IN % (LARVAE) ([4]; 100 ppm AI): 78% | AVERAGE DEAD IN % (EGGS) ([4]; 200 ppm AI): 0% | AVERAGE DEAD IN % (LARVAE) ([4]; 200 ppm AI): 80%

emamectin benzoate
AVERAGE DEAD IN % AFTER 8 DAYS ([1]; 0.0125 ppm alone): 5% | AVERAGE DEAD IN % AFTER 8 DAYS ([1]; 0.025 ppm alone): 23% | AVERAGE DEAD IN % AFTER 8 DAYS ([1]; 0.05 ppm alone): 38% | AVERAGE DEAD IN % AFTER 1 DAY ([1]; Emamectin benzoate alone 0.0125 ppm AI): 0% | AVERAGE DEAD IN % AFTER 1 DAY ([1]; Emamectin benzoate alone 0.025 ppm AI): 8% | AVERAGE DEAD IN % AFTER 1 DAY ([1]; Emamectin benzoate alone 0.05 ppm AI): 0% | AVERAGE DEAD IN % AFTER 5 DAYS ([2]; 0.003125 PPM AI): 20% | AVERAGE DEAD IN % AFTER 5 DAYS ([2]; 0.00625 PPM AI): 23% | AVERAGE DEAD IN % AFTER 5 DAYS ([2]; 0.0125 PPM AI): 30% and 27% | AVERAGE DEAD IN % ([3]; single compound at 0.00075 ppm AI): 0% | AVERAGE DEAD IN % ([3]; single compound at 0.0015 ppm AI): 0% | AVERAGE DEAD IN % ([3]; single compound at 0.003 ppm AI): 0% | AVERAGE DEAD IN % ([3]; single compound at 0.006 ppm AI): 0% | AVERAGE DEAD IN % ([3]; single compound at 0.012 ppm AI): 55% | AVERAGE DEAD IN % ([3]; single compound at 0.024 ppm AI): 93% | activity on eggs ([4]; egg mortality, 7 days incubation): inactive | AVERAGE DEAD IN % (LARVAE) ([4]; 0.0015 ppm AI): 5% | AVERAGE DEAD IN % (LARVAE) ([4]; 0.003 ppm AI): 5% | AVERAGE DEAD IN % (LARVAE) ([4]; 0.006 ppm AI): 10%
